In ChEMBL document CHEMBL1141708, “Structure-activity relationship of ortho- and meta-phenol based LFA-1 ICAM inhibitors” (Bioorg Med Chem Lett, 2008):

Columns and labels:
[1] = in vivo; conditions: rat, po
[2] = in vivo; conditions: rat

Structure (SMILES) | bioavailability [1] | half-life [2]
O=C(/C=C/c1ccc(Sc2ccccc2OC[C@H]2CC[C@@H](C(=O)O)CC2)c(C(F)(F)F)c1C(F)(F)F)N1CCOCC1 | 9% | 3.6 h
O=C(/C=C/c1ccc(Sc2cccc(O[C@H]3CC[C@@H](C(=O)O)CC3)c2)c(C(F)(F)F)c1C(F)(F)F)N1CCOCC1 | 31% | 2.6 h
